Data: patent US20070275936A1, “Formulations and Treatment Methods” (priority 1998, published 2007)

Target: chloroquine resistant KI P. falciparum
Assay type: cell-based
Description: Triplicate readings were made for each concentration.
The testing was carried out according to the procedure of Desjardins et al. 1979. After 30 hr culture at 37 degrees C., the same microtiter plates from schizont inhibition assays with another triplicate wells were pulsed with ^3H-hypoxanthine for overnight. The cell suspensions were washed twice on millipore glass fiber filter with Millipore filter apparatus. […] The activity of the drug was measured by plotting DPM against concentration of drug.

SMILES | IC50
C[C@]12CC[C@H](O)C[C@@H]1CC[C@@H]1[C@@H]2CC[C@]2(C)C(=O)[C@H](Cl)C[C@@H]12 [16-chloroepiandrosterone, 16α-chloroepiandrosterone] | ˜9.25 μg/mL
C[C@]12CC[C@H](O)CC1=CC[C@@H]1[C@@H]2CC[C@]2(C)C(=O)[C@H](Br)C[C@@H]12 [DHEA-Br, 16α-bromodehydro-epiandrosterone] | ˜25.0 μg/mL
